In patent US11161845B2, “Pyrrolopyridine-aniline compounds for treatment of dermal disorders” (Nflection Therapeutics, Inc., priority 2017, dated 2021):

What was measured:
[1] = biological target: T1, MEK1 (Homo sapiens, UniProt Q02750); experiment: MEK inhibition assay, Biological Example 1a (33P-ATP, P81 filter-binding); conditions: read-out: Assay 1: biochemical MEK IC50
T1 construct: N-terminal His-tagged recombinant human full length protein; His (N); purchased Invitrogen PV3303; host or cells: insect cells
Experimental: MEK1 inhibitory activity of compounds were tested using the following procedure. […] Activated in vitro by RAF1. MW=49.2 kDa, GenBank Accession No. NP_002746. • Substrate: 5 μM ERK2 (K52R), • Kinase-dead mutant, (GenBank Accession No. NM_0011949), aa2-358 with N-terminal His6 tag, MW=43.63 kDa, expressed in E. coli.
The substrate was prepared in freshly prepared Reaction Buffer. The kinase was delivered into the substrate solution and gently mixed. Test compounds were delivered in 100% DMSO into the kinase reaction mixture by Acoustic technology (Echo550; nanoliter range), and incubated for 20 min at room temperature. ^33P-ATP was delivered into the reaction mixture to initiate the reaction. The reaction mixture was incubated for 2 hours at room temperature. Kinase activity was detected by P81 filter-binding method.

[2] = Plasma LCMS compound levels, in vivo mouse model; set-up: species or system mice; conditions: for concentration at 1 h / concentration at 2 h: male, C57BL/6J, mouse, plasma; for concentration at 1 h: 1 h after final application; for concentration at 2 h: 2 h after final application; for Plasma LCMS Compound Levels: pre-dose (16 h)
Experimental: These mice were also shaved weekly.
Week 4 (Experiment end): Skin and blood were collected right before the last morning dose (N=3), 1 hour (N=3 mice), and 2 hours (N=3 mice) after final application; Blood draw: Plasma compound levels (LCMS); Skin biopsy: formalin fixed for histology and p-ERK staining, flash frozen for Western analysis and skin compound levels (LCMS)
Compound level analysis: Liquid chromatography with mass spectrometry method (LCMS) was used to detect compound levels in the skin and plasma. Tissues were preprocessed prior to LCMS as follows. Tissues were minced and incubated with collagenase and then finally homogenized using the stainless steel beads prior to LCMS analysis. Calibration curves and a QC test were run with each assay.

[3] = tested on: MDCK-MDR1 cells; experiment: in vitro; conditions: dog, MDCK-MDR1, 1 h, 5 μM
Experimental: (§1) MDCK-MDR1 is a stable-transfected cell line originating from MDCK cells, with over-expression of human MDR1 gene. The cell line is widely used for the identification and characterization of P-gp substrates and inhibitors.
(§2) MDCK-MDR1 cells were plated into 96-well Millipore Millicell-96 plates at 7,500 cells/75 μL/well and incubated for three days at 37° C. with 5% CO2. Cells were washed with Hank's Balanced Salt Solution (HBSS) with 5 mM HEPES for 30 minutes before starting the experiment. Test compound solutions were prepared by diluting DMSO stock into HBSS buffer, resulting in a final DMSO concentration of 0.1%. Prior to the experiment, cell monolayer integrity was verified by […] electrical resistance (TEER). Transport experiment was initiated by adding test compounds to the apical (75 μL) or basal (250 μL) side. Transport plates were incubated at 37° C. in a humidified incubator with 5% CO2. Samples were taken from the donor and acceptor compartments after one hour and analyzed by liquid chromatography with tandem mass spectrometry (LC/MS/MS).
(§3) Digoxin was used as reference control.
(§4) Apparent permeability (Papp) values were calculated using the following equation: Papp=(dQ/dt)/A/Co; where dQ/dt is the initial rate of amount of test compound transported across cell monolayer, A is the surface area of the filter membrane, and Co is the initial concentration of the test compound, calculated for each direction using a 4-point calibration curve by LC/MS/MS.
(§5) Net flux ratio between the two directional transports was calculated by the following equation: Ratio=Papp, B-A/Papp, A-B; where Papp, B-A and Papp, A-B represent the apparent permeability of test compound from the basal-to-apical and apical-to-basal side of the cellular monolayer, respectively.
(§6) Recovery was calculated based on the compound concentration at the end of the experiment, compared to that at the beginning of the experiment, adjusted for volumes.
(§7) A net flux ratio greater than two was considered a positive result for substrate determination. […] If the addition of a known P-gp inhibitor to the experiment reduces the net flux ratio by a significant amount (more than 50% reduction or reduces the ratio to close to unity), it is likely that the compound tested is a P-gp substrate.

[4] = tested on: P-gp (human MDR1); experiment: in vitro; conditions: dog; for Papp A→B at 1 h, 5 μM / Papp B→A at 1 h, 5 μM: MDCK-MDR1, Papp
Experimental: as §1, §2, §3, §4, §5, §6, §7

T1 sequence (Q02750 whole entry): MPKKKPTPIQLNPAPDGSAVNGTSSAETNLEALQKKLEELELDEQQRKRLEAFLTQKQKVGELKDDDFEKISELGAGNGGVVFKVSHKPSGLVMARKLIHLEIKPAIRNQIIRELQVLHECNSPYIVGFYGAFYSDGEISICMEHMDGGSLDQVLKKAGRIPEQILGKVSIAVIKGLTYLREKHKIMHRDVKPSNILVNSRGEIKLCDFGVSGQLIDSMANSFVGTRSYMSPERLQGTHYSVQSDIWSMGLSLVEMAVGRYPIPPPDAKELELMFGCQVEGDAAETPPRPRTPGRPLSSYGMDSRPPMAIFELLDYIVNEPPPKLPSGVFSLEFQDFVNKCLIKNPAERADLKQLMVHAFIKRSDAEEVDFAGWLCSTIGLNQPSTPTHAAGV

Work on Cn1c(Nc2ccc(I)cc2F)c(C(=O)NOCCO)c2cccnc21 [Example 2, 2-((2-Fluoro-4-iodophenyl)amino)—N-(2-hydroxyethoxy)-1-methyl-1H-pyrrolo[2,3-b]pyridine-3-carboxamide] yielded an IC50 [1] of 246 nM, a concentration at 1 h ([2]; topical 0.1%) of 174 ng/mL and a concentration at 2 h ([2]; topical 0.1%) of 37.9 ng/mL. The concentration at 1 h ([2]; topical 0.5%) was 1040 ng/mL, the concentration at 2 h ([2]; topical 0.5%) was 102 ng/mL and the concentration at 1 h ([2]; topical 1%) was 1020 ng/mL. The concentration at 2 h ([2]; topical 1%) was 262 ng/mL, the “Plasma LCMS Compound Levels” value ([2]; topical 0.1%) was 1.18 ng/mL and the “Plasma LCMS Compound Levels” value ([2]; topical 0.5%) was 4.78 ng/mL. For the same molecule, the “Plasma LCMS Compound Levels” value ([2]; topical 1%) was 24.98 ng/mL, the “Papp, A-B Value” [3] was 47.8 ×10⁻⁶ cm/s and the “Papp, B-A Value” [3] was 41.3 ×10⁻⁶ cm/s. For the same molecule, the “Recover Rate” value [3] was 92%, the efflux ratio at 1 h, 5 μM ([4]; MDCK-MDR1) was 0.9 and the Papp A→B at 1 h, 5 μM ([4]; A-B Mean) was 49.1 ×10⁻⁶ cm/s. The Papp A→B at 1 h, 5 μM ([4]; A-B Value) was 50.5 ×10⁻⁶ cm/s, the Papp B→A at 1 h, 5 μM ([4]; B-A Mean) was 41.8 ×10⁻⁶ cm/s and the Papp B→A at 1 h, 5 μM ([4]; B-A Value) was 42.3 ×10⁻⁶ cm/s.
